Measurements: patent US4594329A, “CRF analogs” (The Salk Institute for Biological Studies, priority 1984, dated 1986)
Square brackets hold non-standard residues; d marks the D form. Peptide text beside a SMILES is read from it. Nle = CCCC[C@H](N)C(=O)O; Orn = NCCC[C@H](N)C(=O)O

What was measured:
[1] = system: cultured rat pituitary cells; assay: secretion of ACTH and β-endorphin by cultured rat pituitary cells; type: cell-based
Protocol: (§1) The synthetic peptide AHC and oCRF were examined for their effects on the secretion of ACTH and β-endorphin in vitro and was also in vivo. The potency of synthetic oCRF to stimulate the secretion of ACTH and β-endorphin by cultured rat pituitary cells was measured using the procedure as generally set forth in Endocrinology, 91, 562 (1972). […] In vivo testing is carried out using the general procedure set forth in C. Rivier et al., Science, 218, 377 (1982).

[2] = lowering of blood pressure, in vivo testing; details: for lowering of blood pressure: general procedure of Example III
Protocol: as §1

[3] = general procedure of Example III

Row | Molecule | stimulates the secretion of ACTH and β-END-LI [1, 3] | lowering of blood pressure [2] | other results
1 | Ac-GEEPPISLDLTFHLLREVLEMARAEQLAQQAHLNRKLMEEI-NH2 [[Acetyl-Gly^1, Leu^33, Glu^40]-rCRF] | stimulates the secretion of ACTH and β-END-LI | very significant lowering of blood pressure | –
2 | H-SQEPPISLDLTFALLREMLEMAKAEQEAEQAALNRLLLEEA-NH2 [[Ala^13]-AHC] | stimulates the secretion of ACTH and β-END-LI | very significant lowering of blood pressure | –
3 | H-SQE[dP]PISLDLTFHLLRE[Nle]LE[Nle]AKAEQEAEQAALNRLLLEEA-NH2 [[D-Pro^4, Nle^18,21]-AHC] | stimulates the secretion of ACTH and β-END-LI | very significant lowering of blood pressure | –
4 | H-SEEPPIS[Nle]DLSFHLLREVLEMARAEQLAQQAHLNRKLMEEI-NH2 [[Nle^8, Ser^11, Leu^33, Glu^40]-rCRF] | stimulates the secretion of ACTH and β-END-LI | very significant lowering of blood pressure | –
5 | Ac-PPISLDLTFHLLREVLEMARAEQLAEQAHSNRKYMEEI-NH2 | stimulates the secretion of ACTH and β-END-LI | very significant lowering of blood pressure | lowering of blood pressure compared with rCRF ([2]; comparison with rCRF): to a greater extent than rCRF
6 | CC[C@H](C)[C@H](NC(=O)[C@H](CCC(=O)O)NC(=O)[C@H](CC(=O)O)NC(=O)[C@H](CCSC)NC(=O)[C@H](CC(C)C)NC(=O)[C@H](CCCCNC(=N)N)NC(=O)[C@H](CCCNC(=N)N)NC(=O)[C@H](CC(N)=O)NC(=O)[C@H](CC(N)=O)NC(=O)[C@H](C)NC(=O)[C@H](C)NC(=O)[C@H](CCC(N)=O)NC(=O)[C@H](CCC(N)=O)NC(=O)[C@H](CCCCN)NC(=O)[C@H](CC(C)C)NC(=O)[C@H](CCCCN)NC(=O)[C@H](CCC(=O)O)NC(=O)[C@H](CCC(N)=O)NC(=O)[C@H](CCCCN)NC(=O)[C@H](CCC(=O)O)NC(=O)[C@@H](NC(=O)[C@H](CCC(=O)O)NC(=O)[C@@H](NC(=O)[C@H](CCSC)NC(=O)[C@H](CCCCN)NC(=O)[C@H](CCCNC(=N)N)NC(=O)[C@H](CC(C)C)NC(=O)[C@H](CC(C)C)NC(=O)[C@H](CCC(=O)O)NC(=O)[C@H](CC(C)C)NC(=O)[C@H](CO)NC(=O)[C@H](CC(C)C)NC(=O)[C@H](CC(=O)O)NC(=O)[C@@H](NC(=O)[C@H](CO)NC(=O)[C@@H](NC(=O)[C@@H]1CCCN1C(=O)[C@@H]1CCCN1C(=O)CNC(=O)[C@@H]1CCC(=O)N1)[C@@H](C)CC)[C@@H](C)CC)[C@@H](C)CC)[C@@H](C)CC)C(N)=O | stimulates the secretion of ACTH and β-END-LI | very significant lowering of blood pressure | –
7 | H-SQ[dY][dP]PISLDLTFHLLRE[Nle]LE[Nle]AKAEQEAEQAALNRLLLEEA-NH2 [[D-Tyr^3, D-Pro^4, Nle^18, 21]-AHC] | stimulates the secretion of ACTH and β-END-LI | very significant lowering of blood pressure | –
8 | H-SQEPPISLELTFHLLRE[Nle]LE[Nle]AKAEQEAEQAALNRLLLEEA-NH2 [[Glu^9, Nle^18, 21]-AHC] | stimulates the secretion of ACTH and β-END-LI | very significant lowering of blood pressure | –
9 | CC[C@H](C)[C@H](NC(=O)[C@H](CC(=O)O)NC(=O)[C@H](CC(C)C)NC(=O)[C@H](CC(C)C)NC(=O)[C@H](CCCCN)NC(=O)[C@H](CCCNC(=N)N)NC(=O)[C@H](CC(N)=O)NC(=O)[C@H](CO)NC(=O)[C@H](Cc1c[nH]cn1)NC(=O)[C@H](C)NC(=O)[C@H](CCC(N)=O)NC(=O)[C@H](CCC(N)=O)NC(=O)[C@H](C)NC(=O)[C@H](CC(C)C)NC(=O)[C@H](CCC(N)=O)NC(=O)[C@H](CC(=O)O)NC(=O)[C@H](C)NC(=O)[C@H](CCCCN)NC(=O)[C@H](CC(=O)O)NC(=O)[C@H](CCSC)NC(=O)[C@H](CCC(=O)O)NC(=O)[C@H](CC(C)C)NC(=O)[C@@H](NC(=O)[C@H](CCC(=O)O)NC(=O)[C@H](CCCNC(=N)N)NC(=O)[C@H](CC(C)C)NC(=O)[C@H](CC(C)C)NC(=O)[C@H](Cc1c[nH]cn1)NC(=O)[C@H](Cc1ccccc1)NC(=O)[C@@H](NC(=O)[C@H](CC(C)C)NC(=O)[C@H](CC(=O)O)NC(=O)[C@H](CC(C)C)NC(=O)[C@H](CO)NC(=O)[C@@H](NC(=O)[C@H]1CCCN1)[C@@H](C)CC)[C@@H](C)O)C(C)C)C(=O)N[C@@H](C)C(N)=O [[D-Pro^4,Asp^22]-oCRF(4-41)] (H-[dP]ISLDLTFHLLREVLEMDKADQLAQQAHSNRKLLDIA-NH2) | stimulates the secretion of ACTH and β-END-LI | very significant lowering of blood pressure | –
10 | H-SEEPPISLDLTLELLREMLEME[Orn]AEKEAEQAALNRLLLEEA-NH2 | stimulates the secretion of ACTH and β-END-LI | very significant lowering of blood pressure | –
11 | H-PPISIDLSLELLRKMIEIAKQEKEKEQAANNRLLMDTI-NH2 | stimulates the secretion of ACTH and β-END-LI | very significant lowering of blood pressure | –
12 | CCCC[C@H](NC(=O)[C@H](CCC(=O)O)NC(=O)[C@H](CC(C)C)NC(=O)[C@H](CCCC)NC(=O)[C@H](CCC(=O)O)NC(=O)[C@H](CCCNC(=N)N)NC(=O)[C@H](CC(C)C)NC(=O)[C@H](CC(C)C)NC(=O)[C@H](Cc1c[nH]cn1)NC(=O)[C@H](Cc1ccccc1)NC(=O)[C@@H](NC(=O)[C@H](CC(C)C)NC(=O)[C@H](CC(=O)O)NC(=O)[C@H](CC(C)C)NC(=O)[C@H](CO)NC(=O)[C@@H](NC(=O)[C@@H]1CCCN1C(=O)[C@@H]1CCCN1C(=O)[C@H](N)Cc1ccc(O)cc1)[C@@H](C)CC)[C@@H](C)O)C(=O)N[C@@H](C)C(=O)N[C@@H](CCCCN)C(=O)N[C@@H](C)C(=O)N[C@@H](CCC(=O)O)C(=O)N[C@@H](CCC(N)=O)C(=O)N[C@@H](CCC(=O)O)C(=O)N[C@@H](C)C(=O)N[C@@H](CCC(=O)O)C(=O)N[C@@H](CCC(N)=O)C(=O)N[C@@H](C)C(=O)N[C@@H](C)C(=O)N[C@@H](CC(C)C)C(=O)N[C@@H](CC(N)=O)C(=O)N[C@@H](CCCNC(=N)N)C(=O)N[C@@H](CC(C)C)C(=O)N[C@@H](CC(C)C)C(=O)N[C@@H](CC(C)C)C(=O)N[C@@H](CCC(=O)O)C(=O)N[C@@H](CCC(=O)O)C(=O)N[C@@H](C)C(N)=O [[D-Tyr^3, Nle^18,21]-AHC(3-41)] (H-[dY]PPISLDLTFHLLRE[Nle]LE[Nle]AKAEQEAEQAALNRLLLEEA-NH2) | stimulates the secretion of ACTH and β-END-LI | very significant lowering of blood pressure | –
13 | H-YSEEPPISLDLTFHLLREVLEMARAEQLAEQAHSNRKLMEII-NH2 [[Tyr-Ser^1, Glu^29]-rCRF] | stimulates the secretion of ACTH and β-END-LI | very significant lowering of blood pressure | –
14 | CCCC[C@H](NC(=O)[C@H](CCC(=O)O)NC(=O)[C@H](CC(C)C)NC(=O)[C@H](CCCC)NC(=O)[C@H](CCC(=O)O)NC(=O)[C@H](CCCNC(=N)N)NC(=O)[C@H](CC(C)C)NC(=O)[C@H](CC(C)C)NC(=O)[C@H](Cc1c[nH]cn1)NC(=O)[C@H](Cc1ccccc1)NC(=O)[C@@H](NC(=O)[C@H](CC(C)C)NC(=O)[C@H](CC(=O)O)NC(=O)[C@H](CC(C)C)NC(=O)[C@H](CO)NC(=O)[C@@H](NC(=O)[C@@H]1CCCN1C(=O)[C@H]1CCCN1)[C@@H](C)CC)[C@@H](C)O)C(=O)N[C@@H](C)C(=O)N[C@@H](CCCCN)C(=O)N[C@@H](C)C(=O)N[C@@H](CCC(=O)O)C(=O)N[C@@H](CCC(N)=O)C(=O)N[C@@H](CCC(=O)O)C(=O)N[C@@H](C)C(=O)N[C@@H](CCC(=O)O)C(=O)N[C@@H](CCC(N)=O)C(=O)N[C@@H](C)C(=O)N[C@@H](C)C(=O)N[C@@H](CC(C)C)C(=O)N[C@@H](CC(N)=O)C(=O)N[C@@H](CCCNC(=N)N)C(=O)N[C@@H](CC(C)C)C(=O)N[C@@H](CC(C)C)C(=O)N[C@@H](CC(C)C)C(=O)N[C@@H](CCC(=O)O)C(=O)N[C@@H](CCC(=O)O)C(=O)N[C@@H](C)C(N)=O [[D-Pro^4, Nle^18,21]-AHC(4-41)] (H-[dP]PISLDLTFHLLRE[Nle]LE[Nle]AKAEQEAEQAALNRLLLEEA-NH2) | – | very significant lowering of blood pressure | secretion of ACTH and β-END-LI, amount relative to oCRF ([1]; % of oCRF, general procedure of Example III): about 160%
15 | CCCC[C@H](NC(=O)[C@H](CCC(=O)O)NC(=O)[C@H](CC(C)C)NC(=O)[C@H](CCCC)NC(=O)[C@H](CCC(=O)O)NC(=O)[C@H](CCCNC(=N)N)NC(=O)[C@H](CC(C)C)NC(=O)[C@H](CC(C)C)NC(=O)[C@H](Cc1c[nH]cn1)NC(=O)[C@H](Cc1ccccc1)NC(=O)[C@@H](NC(=O)[C@H](CC(C)C)NC(=O)[C@H](CC(=O)O)NC(=O)[C@H](CC(C)C)NC(=O)[C@H](CO)NC(=O)[C@@H](N)[C@@H](C)CC)[C@@H](C)O)C(=O)N[C@@H](C)C(=O)N[C@@H](CCCCN)C(=O)N[C@@H](C)C(=O)N[C@@H](CCC(=O)O)C(=O)N[C@@H](CCC(N)=O)C(=O)N[C@@H](CCC(=O)O)C(=O)N[C@@H](C)C(=O)N[C@@H](CCC(=O)O)C(=O)N[C@@H](CCC(N)=O)C(=O)N[C@@H](C)C(=O)N[C@@H](C)C(=O)N[C@@H](CC(C)C)C(=O)N[C@@H](CC(N)=O)C(=O)N[C@@H](CCCNC(=N)N)C(=O)N[C@@H](CCCNC(=N)N)C(=O)N[C@@H](CC(C)C)C(=O)N[C@@H](CC(C)C)C(=O)N[C@@H](CCC(=O)O)C(=O)N[C@@H](CCC(=O)O)C(=O)N[C@@H](C)C(N)=O [[Nle^18,21,Arg^36]-AHC(6-41)] (H-ISLDLTFHLLRE[Nle]LE[Nle]AKAEQEAEQAALNRRLLEEA-NH2) | stimulates the secretion of ACTH and β-END-Li | very significant lowering of blood pressure | –
16 | H-SQEPPISLDLTFHLLREMLEMAKAEQEAEQAALNRLLLEEA-NH2 [AHC] | – | – | EC50 ([1]; cultured rat pituitary cells, read-out: concentration giving half-maximal responses, secretion of ACTH and β-endorphin): ~0.065 nM; potency ([1]; general statement, compared with native CRF, test not named): particularly potent; secretory response to maximal concentrations ([1]; maximal (1-5 nM) concentrations): at a plateau level
